# Several values for one entry are separate records, joined by “and”; a condition that tells them apart may be missing. Equal entries are not always repeated. Where two headings read alike, the source gives them in different places.
# Columns and labels:
# UO-31 (Renal Cancer) = assay: NCI DTP tumor cell line screen (SRB), UO-31
# Method: (§1) For a typical screening experiment, cells are inoculated into 96 well microtiter plates in 100 μL at plating densities ranging from 5,000 to 40,000 cells/well depending on the doubling time of individual cell lines. After cell inoculation, the microtiter plates are incubated at 37° C., 5% CO2, 95% air and 100% relative humidity for 24 h prior to addition of experimental drugs.
# (§2) After 24 h, two plates of each cell line are fixed in situ with TCA, to represent a measurement of the cell population for each cell line at the time of drug addition (Tz). Experimental drugs are solubilized in dimethyl sulfoxide at 400-fold the desired final maximum test concentration and stored frozen prior to use. At the time of drug addition, an aliquot of frozen concentrate is thawed and diluted to twice the desired final maximum test concentration with complete medium containing 50 μg/ml gentamicin. Additional four, 10-fold or ½ log serial dilutions are made to provide a total of five drug concentrations plus control. Aliquots of 100 μl of these different drug dilutions are added to the appropriate microtiter wells already containing 100 μl of medium, resulting in the required final drug concentrations.
# (§3) Following drug addition, the plates are incubated for an additional 48 h at 37° C., 5% CO2, 95% air, and 100% relative humidity. For adherent cells, the assay is terminated by the addition of cold TCA. Cells are fixed in situ by the gentle addition of 50 μl of cold 50% (w/v) TCA (final concentration, 10% TCA) and incubated for 60 minutes at 4° C. The supernatant is discarded, and the plates are washed five times with tap water and air dried. Sulforhodamine B (SRB) solution (1001) at 0.4% (w/v) in 1% acetic acid is added to each well, and plates are incubated for 10 minutes at room temperature. After staining, unbound dye is removed by washing five times with 1% acetic acid and the plates are air dried. Bound stain is subsequently solubilized with 10 mM trizma base, and the absorbance is read on an automated plate reader at a wavelength of 515 nm. For suspension cells, the methodology is the same except that the assay is terminated by fixing settled cells at the bottom of the wells by gently adding 50 μl of 80% TCA (final concentration, 16% TCA). Using the seven absorbance measurements [time zero, (Tz), control growth, (C), and test growth in the presence of drug at the five concentration levels (Ti)], the percentage growth is calculated at each of the drug concentrations levels. Percentage growth inhibition is calculated as: [(Ti−Tz)/(C−Tz)]×100 for concentrations for which Ti>/=Tz [(Ti−Tz)/Tz]×100 for concentrations for which Ti<Tz
# (§4) Three dose response parameters are calculated for each experimental agent. […] The drug concentration resulting in total growth inhibition (TGI) is calculated from Ti=Tz. […] Values are calculated for each of these three parameters if the level of activity is reached; however, if the effect is not reached or is exceeded, the value for that parameter is expressed as greater or less than the maximum or minimum concentration tested.
# [1] = tested on: sixty human tumor cell lines; assay: NCI DTP sixty human tumor cell line screen (SRB), means over the panel
# RPMI-8226 (Leukemia) = assay: NCI DTP tumor cell line screen (SRB), RPMI-8226
# Method: as §1, §2, §3, §4
# KM12 (Colon Cancer) = assay: NCI DTP tumor cell line screen (SRB), KM12
# Method: as §1, §2, §3, §4
# [2] = tested on: HOP-62 (Non-Small Cell Lung Cancer); assay: NCI DTP tumor cell line screen (SRB), HOP-62
# Method: as §1, §2, §3, §4
# [3] = tested on: NCI/ADR-RES (Breast Cancer)
# Method: as §1, §2, §3, §4
# IGROV1 (Ovarian Cancer) = assay: NCI DTP tumor cell line screen (SRB), IGROV1
# Method: as §1, §2, §3, §4
# [4] = tested on: NCI-H460 (Non-Small Cell Lung Cancer)
# Method: as §1, §2, §3, §4
# [5] = tested on: A549/ATCC (Non-Small Cell Lung Cancer); assay: NCI DTP tumor cell line screen (SRB), A549/ATCC
# Method: as §1, §2, §3, §4
# M14 (Melanoma) = assay: NCI DTP tumor cell line screen (SRB), M14
# Method: as §1, §2, §3, §4
# [6] = tested on: NCI-H23 (Non-Small Cell Lung Cancer)
# Method: as §1, §2, §3, §4
# SW-620 (Colon Cancer) = assay: NCI DTP tumor cell line screen (SRB), SW-620
# Method: as §1, §2, §3, §4
# SK-MEL-2 (Melanoma) = assay: NCI DTP tumor cell line screen (SRB), SK-MEL-2
# Method: as §1, §2, §3, §4
# 786-0 (Renal Cancer) = assay: NCI DTP tumor cell line screen (SRB), 786-0
# Method: as §1, §2, §3, §4
# [7] = tested on: MDA-MB-435 (Breast Cancer); assay: NCI DTP tumor cell line screen (SRB), MDA-MB-435
# Method: as §1, §2, §3, §4
# OVCAR-4 (Ovarian Cancer) = assay: NCI DTP tumor cell line screen (SRB), OVCAR-4
# Method: as §1, §2, §3, §4
substance,measurement,setting,value
4-[5-(2-Phenanthrenyl)-3-(trifluoromethyl)-1H-pyrazol-1-yl]-phenyl -guanidine [Compound 71],GI50,UO-31 (Renal Cancer),1.57 µM
same,TGI,UO-31 (Renal Cancer),2.92E−06
same,Percent Growth,UO-31 (Renal Cancer); Log10 Concentration −4.0,−35%
same,Percent Growth,UO-31 (Renal Cancer); Log10 Concentration −5.0,−100%
same,Percent Growth,UO-31 (Renal Cancer); Log10 Concentration −7.0,94%
same,Percent Growth,UO-31 (Renal Cancer); Log10 Concentration −8.0,91%
same,concentration range completely suppressing cell growth in a diverse range of tumor cell lines,[1],3 to 5 µM
same,GI50,"[1]; read-out: mean GI50 among the sixty cell lines, two-day treatment",1.2 µM and 1.3 µM
same,CC50,"[1]; read-out: mean LC50 among the sixty cell lines, two-day treatment",8.5 µM
same,mean TGI among the sixty cell lines,[1]; two-day treatment,2.9 µM
same,GI50,RPMI-8226 (Leukemia),1.03 µM
same,TGI,RPMI-8226 (Leukemia),2.25E−06
same,Percent Growth,RPMI-8226 (Leukemia); Log10 Concentration −4.0,−47%
same,Percent Growth,RPMI-8226 (Leukemia); Log10 Concentration −5.0,−95%
same,Percent Growth,RPMI-8226 (Leukemia); Log10 Concentration −6.0,52%
same,Percent Growth,RPMI-8226 (Leukemia); Log10 Concentration −7.0,65%
same,Percent Growth,RPMI-8226 (Leukemia); Log10 Concentration −8.0,58%
same,GI50,KM12 (Colon Cancer),1.59 µM
same,TGI,KM12 (Colon Cancer),2.97E−06
same,Percent Growth,KM12 (Colon Cancer); Log10 Concentration −4.0,−43%
same,Percent Growth,KM12 (Colon Cancer); Log10 Concentration −5.0,−98%
same,Percent Growth,KM12 (Colon Cancer); Log10 Concentration −7.0,91%
same,Percent Growth,KM12 (Colon Cancer); Log10 Concentration −8.0,94%
same,GI50,[2],1.72 µM
same,Percent Growth,[2]; Log10 Concentration −4.0,−36%
same,Percent Growth,[2]; Log10 Concentration −5.0,−98%
same,Percent Growth,[2]; Log10 Concentration −7.0,97%
same,Percent Growth,[2]; Log10 Concentration −8.0,100%
same,GI50,[3],2.64 µM
same,TGI,[3],7.73E−06
same,Percent Growth,[3]; Log10 Concentration −4.0,−47%
same,Percent Growth,[3]; Log10 Concentration −6.0,95%
same,Percent Growth,[3]; Log10 Concentration −8.0,98%
same,GI50,IGROV1 (Ovarian Cancer),1.07 µM
same,TGI,IGROV1 (Ovarian Cancer),2.26E−06
same,Percent Growth,IGROV1 (Ovarian Cancer); Log10 Concentration −4.0,−53%
same,Percent Growth,IGROV1 (Ovarian Cancer); Log10 Concentration −5.0,−100%
same,Percent Growth,IGROV1 (Ovarian Cancer); Log10 Concentration −6.0,55%
same,Percent Growth,IGROV1 (Ovarian Cancer); Log10 Concentration −7.0,83%
same,Percent Growth,IGROV1 (Ovarian Cancer); Log10 Concentration −8.0,85%
same,GI50,[4],1.64 µM
same,TGI,[4],3.04E−06
same,Percent Growth,[4]; Log10 Concentration −4.0,−20%
same,Percent Growth,[4]; Log10 Concentration −5.0,−97%
same,Percent Growth,[4]; Log10 Concentration −6.0,90%
same,Percent Growth,[4]; Log10 Concentration −7.0,91%
same,Percent Growth,[4]; Log10 Concentration −8.0,91%
same,GI50,[5],1.68 µM
same,TGI,[5],3.04E−06
same,Percent Growth,[5]; Log10 Concentration −4.0,−63%
same,Percent Growth,[5]; Log10 Concentration −5.0,−100%
same,GI50,M14 (Melanoma),1.48 µM
same,TGI,M14 (Melanoma),2.80E−06
same,Percent Growth,M14 (Melanoma); Log10 Concentration −4.0,−33%
same,Percent Growth,M14 (Melanoma); Log10 Concentration −5.0,−100%
same,Percent Growth,M14 (Melanoma); Log10 Concentration −7.0,82%
same,GI50,[6],1.79 µM
same,TGI,[6],3.18E−06
same,Percent Growth,[6]; Log10 Concentration −4.0,−67%
same,Percent Growth,[6]; Log10 Concentration −5.0,−100%
same,Percent Growth,[6]; Log10 Concentration −6.0,101%
same,GI50,SW-620 (Colon Cancer),1.75 µM
same,TGI,SW-620 (Colon Cancer),3.13E−06
same,Percent Growth,SW-620 (Colon Cancer); Log10 Concentration −4.0,−92%
same,Percent Growth,SW-620 (Colon Cancer); Log10 Concentration −5.0,−100%
same,Percent Growth,SW-620 (Colon Cancer); Log10 Concentration −6.0,98%
same,Percent Growth,SW-620 (Colon Cancer); Log10 Concentration −7.0,91%
same,Percent Growth,SW-620 (Colon Cancer); Log10 Concentration −8.0,83%
same,GI50,SK-MEL-2 (Melanoma),1.57 µM
same,TGI,SK-MEL-2 (Melanoma),2.91E−06
same,Percent Growth,SK-MEL-2 (Melanoma); Log10 Concentration −4.0,−29%
same,Percent Growth,SK-MEL-2 (Melanoma); Log10 Concentration −5.0,−100%
same,Percent Growth,SK-MEL-2 (Melanoma); Log10 Concentration −7.0,97%
same,Percent Growth,SK-MEL-2 (Melanoma); Log10 Concentration −8.0,85%
same,GI50,786-0 (Renal Cancer),1.49 µM
same,TGI,786-0 (Renal Cancer),2.91E−06
same,Percent Growth,786-0 (Renal Cancer); Log10 Concentration −4.0,−30%
same,Percent Growth,786-0 (Renal Cancer); Log10 Concentration −6.0,80%
same,GI50,[7],1.7 µM
same,TGI,[7],3.07E−06
same,Percent Growth,[7]; Log10 Concentration −4.0,−27%
same,Percent Growth,[7]; Log10 Concentration −5.0,−100%
same,Percent Growth,[7]; Log10 Concentration −6.0,95%
same,GI50,OVCAR-4 (Ovarian Cancer),1.31 µM
same,TGI,OVCAR-4 (Ovarian Cancer),2.58E−06
same,Percent Growth,OVCAR-4 (Ovarian Cancer); Log10 Concentration −4.0,−66%
same,Percent Growth,OVCAR-4 (Ovarian Cancer); Log10 Concentration −5.0,−100%
same,Percent Growth,OVCAR-4 (Ovarian Cancer); Log10 Concentration −6.0,70%
same,Percent Growth,OVCAR-4 (Ovarian Cancer); Log10 Concentration −7.0,79%
